AC50 data for 24 molecules are collected here from ChEMBL document CHEMBL5291721, “A preclinical secondary pharmacology resource illuminates target-adverse drug reaction associations of marketed drugs” (Nat Commun, 2023).

Experiment [1] deals with Histamine H3 receptor (Homo sapiens, UniProt Q9Y5N1).
Experiment [2] addresses T1, Muscarinic acetylcholine receptor M2 (Homo sapiens, UniProt P08172).
T1 sequence (P08172 whole entry): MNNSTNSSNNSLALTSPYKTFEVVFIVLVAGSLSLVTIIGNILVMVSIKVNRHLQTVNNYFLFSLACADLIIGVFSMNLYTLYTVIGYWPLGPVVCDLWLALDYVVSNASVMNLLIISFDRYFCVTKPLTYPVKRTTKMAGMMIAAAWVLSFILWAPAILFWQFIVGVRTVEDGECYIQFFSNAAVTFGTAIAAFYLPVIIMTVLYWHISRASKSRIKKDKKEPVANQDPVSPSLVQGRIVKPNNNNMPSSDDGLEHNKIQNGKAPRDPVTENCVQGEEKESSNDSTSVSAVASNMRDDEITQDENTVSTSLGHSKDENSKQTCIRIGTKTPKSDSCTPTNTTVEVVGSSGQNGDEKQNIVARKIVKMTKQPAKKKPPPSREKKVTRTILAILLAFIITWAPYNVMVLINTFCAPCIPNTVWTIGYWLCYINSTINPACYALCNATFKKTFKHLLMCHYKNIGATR
The class given is functional, cell-based.

The target in experiment [3] is Cannabinoid receptor 1 (Homo sapiens, UniProt P21554). The class given is functional, cell-based.
Sequence of Cannabinoid receptor 1 (P21554 whole entry): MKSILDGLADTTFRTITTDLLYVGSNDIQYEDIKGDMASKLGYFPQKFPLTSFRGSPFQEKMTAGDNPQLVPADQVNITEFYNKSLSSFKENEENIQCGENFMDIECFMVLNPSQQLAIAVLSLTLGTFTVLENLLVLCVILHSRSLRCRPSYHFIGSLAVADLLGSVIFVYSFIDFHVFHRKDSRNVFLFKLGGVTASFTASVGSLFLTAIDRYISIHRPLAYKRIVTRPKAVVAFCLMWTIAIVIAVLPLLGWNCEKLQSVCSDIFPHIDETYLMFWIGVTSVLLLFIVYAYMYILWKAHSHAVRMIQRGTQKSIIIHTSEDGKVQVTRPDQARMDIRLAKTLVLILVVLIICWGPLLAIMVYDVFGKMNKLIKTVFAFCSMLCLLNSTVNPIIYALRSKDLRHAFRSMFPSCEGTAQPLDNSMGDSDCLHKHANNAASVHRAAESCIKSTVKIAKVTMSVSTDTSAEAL
The target in experiment [4] is Neuronal acetylcholine receptor subunit alpha-4 (Homo sapiens, UniProt P43681).
Sequence of Neuronal acetylcholine receptor subunit alpha-4 (P43681 whole entry): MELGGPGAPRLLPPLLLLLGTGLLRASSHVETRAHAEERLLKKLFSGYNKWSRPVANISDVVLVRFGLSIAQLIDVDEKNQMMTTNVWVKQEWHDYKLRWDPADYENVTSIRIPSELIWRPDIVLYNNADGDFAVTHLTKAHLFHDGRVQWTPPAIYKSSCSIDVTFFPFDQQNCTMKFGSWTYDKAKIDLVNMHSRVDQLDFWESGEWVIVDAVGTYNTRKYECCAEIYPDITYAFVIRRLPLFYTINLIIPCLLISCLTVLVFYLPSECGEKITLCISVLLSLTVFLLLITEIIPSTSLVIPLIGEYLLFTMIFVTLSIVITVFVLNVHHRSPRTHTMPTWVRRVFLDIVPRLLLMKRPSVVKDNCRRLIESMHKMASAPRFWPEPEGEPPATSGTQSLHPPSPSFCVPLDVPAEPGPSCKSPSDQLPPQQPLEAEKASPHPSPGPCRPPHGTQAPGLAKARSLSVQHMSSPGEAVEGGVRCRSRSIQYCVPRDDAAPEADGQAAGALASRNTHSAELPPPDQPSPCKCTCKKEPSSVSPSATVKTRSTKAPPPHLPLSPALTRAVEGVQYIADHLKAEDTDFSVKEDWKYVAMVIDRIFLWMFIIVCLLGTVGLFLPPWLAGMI
Experiment [5] deals with Motilin receptor (Homo sapiens, UniProt O43193).
Sequence of Motilin receptor (O43193 whole entry): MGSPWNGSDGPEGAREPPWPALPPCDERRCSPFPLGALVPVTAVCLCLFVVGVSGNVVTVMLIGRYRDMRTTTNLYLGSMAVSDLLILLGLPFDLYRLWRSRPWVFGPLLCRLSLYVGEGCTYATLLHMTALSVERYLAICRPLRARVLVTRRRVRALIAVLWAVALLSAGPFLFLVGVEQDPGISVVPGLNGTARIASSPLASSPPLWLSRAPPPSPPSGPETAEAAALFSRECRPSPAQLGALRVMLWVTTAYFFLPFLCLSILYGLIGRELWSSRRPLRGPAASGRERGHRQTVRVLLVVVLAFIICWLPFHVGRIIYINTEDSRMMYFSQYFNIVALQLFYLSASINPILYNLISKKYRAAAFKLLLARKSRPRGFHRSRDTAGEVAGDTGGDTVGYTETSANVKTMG
For experiment [6], the target named is T2, Endothelin-1 receptor (Homo sapiens, UniProt P25101).
T2 sequence (P25101 whole entry): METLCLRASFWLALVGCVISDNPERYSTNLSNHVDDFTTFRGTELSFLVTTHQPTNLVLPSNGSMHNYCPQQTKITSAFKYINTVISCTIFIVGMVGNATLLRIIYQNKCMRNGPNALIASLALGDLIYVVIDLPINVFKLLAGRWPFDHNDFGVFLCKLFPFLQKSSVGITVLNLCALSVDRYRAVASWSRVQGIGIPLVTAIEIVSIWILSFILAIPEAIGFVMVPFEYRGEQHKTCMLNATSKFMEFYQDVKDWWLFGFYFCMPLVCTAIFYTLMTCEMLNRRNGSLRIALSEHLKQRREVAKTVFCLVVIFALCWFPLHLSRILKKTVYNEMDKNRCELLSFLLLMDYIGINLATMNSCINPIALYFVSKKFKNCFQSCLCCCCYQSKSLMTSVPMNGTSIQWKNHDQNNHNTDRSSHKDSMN

For experiment [7], the target named is T3, 5-hydroxytryptamine receptor 3A (Homo sapiens, UniProt P46098).
T3 sequence (P46098 whole entry): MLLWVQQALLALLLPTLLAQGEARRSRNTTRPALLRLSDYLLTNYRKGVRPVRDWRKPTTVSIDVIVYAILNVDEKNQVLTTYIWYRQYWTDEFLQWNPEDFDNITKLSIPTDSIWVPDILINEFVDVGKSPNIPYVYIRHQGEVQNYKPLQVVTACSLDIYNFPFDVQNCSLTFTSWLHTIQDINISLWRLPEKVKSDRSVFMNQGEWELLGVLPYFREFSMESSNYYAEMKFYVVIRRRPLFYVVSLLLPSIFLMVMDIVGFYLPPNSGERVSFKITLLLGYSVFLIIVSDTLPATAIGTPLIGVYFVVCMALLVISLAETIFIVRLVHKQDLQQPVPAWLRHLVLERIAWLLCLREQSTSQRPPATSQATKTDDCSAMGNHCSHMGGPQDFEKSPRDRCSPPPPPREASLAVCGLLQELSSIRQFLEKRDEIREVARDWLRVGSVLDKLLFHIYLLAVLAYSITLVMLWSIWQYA
It counts as functional.

For experiment [8], the target named is Beta-2 adrenergic receptor (Homo sapiens, UniProt P07550). It counts as functional, cell-based.
Sequence of Beta-2 adrenergic receptor (P07550 whole entry): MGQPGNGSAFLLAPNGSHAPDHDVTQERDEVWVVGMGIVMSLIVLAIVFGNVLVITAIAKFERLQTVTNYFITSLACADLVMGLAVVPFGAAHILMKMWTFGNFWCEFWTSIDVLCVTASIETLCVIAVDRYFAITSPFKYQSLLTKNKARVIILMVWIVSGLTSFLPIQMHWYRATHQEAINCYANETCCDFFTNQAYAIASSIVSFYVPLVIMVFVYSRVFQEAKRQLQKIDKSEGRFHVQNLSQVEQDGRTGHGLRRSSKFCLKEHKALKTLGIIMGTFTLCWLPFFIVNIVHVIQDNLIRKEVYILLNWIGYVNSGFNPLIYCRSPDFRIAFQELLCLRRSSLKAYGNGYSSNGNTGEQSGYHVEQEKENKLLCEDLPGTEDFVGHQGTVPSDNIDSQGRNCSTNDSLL
The target in experiment [9] is T4, Estrogen receptor (Homo sapiens, UniProt P03372).
T4 sequence (P03372 whole entry): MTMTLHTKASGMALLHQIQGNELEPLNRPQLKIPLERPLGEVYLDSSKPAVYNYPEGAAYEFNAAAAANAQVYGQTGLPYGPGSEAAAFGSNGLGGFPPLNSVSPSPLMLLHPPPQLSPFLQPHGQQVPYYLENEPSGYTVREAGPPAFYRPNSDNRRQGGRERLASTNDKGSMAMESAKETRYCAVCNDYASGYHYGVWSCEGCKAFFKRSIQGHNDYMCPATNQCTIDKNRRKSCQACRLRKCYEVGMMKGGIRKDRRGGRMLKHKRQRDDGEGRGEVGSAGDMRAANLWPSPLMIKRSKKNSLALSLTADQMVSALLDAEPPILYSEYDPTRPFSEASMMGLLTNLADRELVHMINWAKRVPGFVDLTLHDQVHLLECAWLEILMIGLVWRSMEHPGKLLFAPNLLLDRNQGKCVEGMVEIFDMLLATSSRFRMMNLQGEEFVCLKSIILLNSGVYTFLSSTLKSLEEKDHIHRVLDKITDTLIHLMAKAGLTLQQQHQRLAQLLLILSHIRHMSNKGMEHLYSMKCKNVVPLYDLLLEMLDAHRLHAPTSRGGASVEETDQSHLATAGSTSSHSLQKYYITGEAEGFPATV

Experiment [10] has as its target T5, Alpha-1A adrenergic receptor (Homo sapiens, UniProt P35348).
T5 sequence (P35348 whole entry): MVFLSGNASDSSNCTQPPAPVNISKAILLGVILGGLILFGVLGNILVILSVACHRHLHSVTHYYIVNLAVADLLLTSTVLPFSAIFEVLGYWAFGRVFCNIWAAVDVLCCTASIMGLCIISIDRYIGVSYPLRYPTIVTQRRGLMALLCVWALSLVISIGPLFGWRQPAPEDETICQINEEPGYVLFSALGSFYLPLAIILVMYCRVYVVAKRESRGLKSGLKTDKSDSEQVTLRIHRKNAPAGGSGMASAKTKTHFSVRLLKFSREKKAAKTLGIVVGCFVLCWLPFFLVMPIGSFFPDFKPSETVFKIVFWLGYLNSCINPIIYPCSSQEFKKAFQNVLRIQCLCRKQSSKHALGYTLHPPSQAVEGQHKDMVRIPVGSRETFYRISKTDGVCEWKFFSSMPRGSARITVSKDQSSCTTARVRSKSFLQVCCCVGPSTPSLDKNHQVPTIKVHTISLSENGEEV
It counts as functional, cell-based.

The target of experiment [11] is Glutamate receptor ionotropic, NMDA 1 (Rattus norvegicus, UniProt P35439).
Also: assay procedure not described here.

Sequence of Histamine H3 receptor (Q9Y5N1 whole entry): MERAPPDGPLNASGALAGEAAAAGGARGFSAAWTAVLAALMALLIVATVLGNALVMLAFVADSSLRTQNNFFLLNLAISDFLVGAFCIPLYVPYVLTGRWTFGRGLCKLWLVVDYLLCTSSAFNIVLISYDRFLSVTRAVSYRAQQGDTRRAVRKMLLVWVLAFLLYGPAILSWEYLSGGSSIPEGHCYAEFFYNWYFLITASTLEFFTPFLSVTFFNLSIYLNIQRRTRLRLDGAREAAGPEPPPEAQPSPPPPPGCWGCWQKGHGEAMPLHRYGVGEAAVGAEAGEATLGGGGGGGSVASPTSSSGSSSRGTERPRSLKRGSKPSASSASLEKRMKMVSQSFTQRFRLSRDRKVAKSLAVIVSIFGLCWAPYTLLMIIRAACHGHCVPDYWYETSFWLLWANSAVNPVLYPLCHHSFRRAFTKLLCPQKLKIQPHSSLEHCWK

What is called AC50 is the concentration at which the activity in the assay is half-maximal. On to `CCOc1cc([C@@H](CS(C)(=O)=O)N2C(=O)c3cccc(NC(C)=O)c3C2=O)ccc1OC`, for which the AC50 in experiment [1], in [2], in experiment [3], in experiment [4], in experiment [5] and in experiment [6] was above 30 µM in each case. Further, the AC50 in experiment [7] and in experiment [8] was above 30 µM each time.

For `CC(=O)NCCCCCC(=O)O` [ACEXAMIC ACID], the AC50 in experiment [9] was above 30 µM.

On to `C=C(C)CNc1ccc(C(C)C(=O)O)cc1` (centres undefined) [ALMINOPROFEN], for which the AC50 in [10] and in experiment [9] was above 30 µM throughout.

As for `C[C@H]1CN(C[C@H](Cc2ccccc2)C(=O)NCC(=O)O)CC[C@@]1(C)c1cccc(O)c1` [ALVIMOPAN], the AC50 in experiment [10] and in experiment [9] was above 30 µM in each case.

With `CC1(C)S[C@@H]2[C@H](NC(=O)C(C(=O)O)c3ccccc3)C(=O)N2[C@H]1C(=O)O` (some centres undefined) [CARBENICILLIN], the concentration at half-maximal activity (AC50) in [1], in [2], in [11], in experiment [3], in experiment [4] and in experiment [5] was above 30 µM each time. In addition, the AC50 in experiment [6], in experiment [7] and in experiment [8] was above 30 µM in each case.

For the molecule `Cc1cc(C2CCCCC2)n(O)c(=O)c1` [CICLOPIROX], the AC50 in [2], in experiment [4] and in experiment [9] was above 30 µM each time.

With `Clc1ccc(Cn2c(CN3CCCC3)nc3ccccc32)cc1` [CLEMIZOLE], the AC50 in experiment [1] was above 30 µM; in experiment [2] it was above 10 µM; in experiment [3] it was above 30 µM; in experiment [4], above 10 µM; in [5], above 30 µM; in [6], above 30 µM. In addition, the half-maximal activity concentration (AC50) in [7] and in [8] was above 30 µM in each case.

On to `C[C@H]1O[C@@H](O[C@H]2CC[C@@]3(C)[C@H](CC[C@@H]4[C@@H]3C[C@@H](O)[C@]3(C)[C@@H](C5=CC(=O)OC5)CC[C@]43O)C2)C[C@H](O)[C@@H]1O[C@H]1C[C@H](O)[C@H](O[C@H]2C[C@H](O)[C@H](O[C@@H]3O[C@H](CO)[C@@H](O)[C@H](O)[C@H]3O)[C@@H](C)O2)[C@@H](C)O1` [DESLANOSIDE], for which the AC50 in experiment [10] and in experiment [9] was above 30 µM throughout.

Consider `CC(C)Cc1ccc([C@H](C)C(=O)O)cc1` [DEXIBUPROFEN], for which the AC50 in experiment [1], in experiment [2], in experiment [3], in experiment [4], in experiment [5] and in experiment [6] was above 30 µM in each case. Besides, the AC50 in experiment [7] and in experiment [8] was above 30 µM throughout.

Consider `CC(C(=O)O)c1cccc(Oc2ccccc2)c1` (centres undefined) [FENOPROFEN], for which, in experiment [10], the AC50 is above 30 µM.

For the molecule `Cc1onc(-c2c(F)cccc2Cl)c1C(=O)N[C@@H]1C(=O)N2[C@@H]1SC(C)(C)[C@@H]2C(=O)O` [FLOXACILLIN], the AC50 in experiment [1], in [2], in [3], in [4], in [5] and in experiment [6] was above 30 µM throughout. Moreover, the half-maximal activity concentration (AC50) in [7] and in [8] was above 30 µM each time.

For `CC1(C)O[C@@H]2C[C@H]3[C@@H]4C[C@H](F)C5=CC(=O)C=C[C@]5(C)[C@@]4(F)[C@@H](O)C[C@]3(C)[C@]2(C(=O)CO)O1` [FLUOCINOLONE ACETONIDE], the AC50 in experiment [10] and in experiment [9] was above 30 µM throughout.

`N=C(N)N/N=C/c1c(Cl)cccc1Cl` [GUANABENZ] came in with an AC50 in [9] above 30 µM.

Regarding `CC(C)[C@@H]1CC[C@@H](C)C[C@H]1O` [LEVOMENTHOL], the concentration at half-maximal activity (AC50) in experiment [10] was above 30 µM.

For the molecule `C[N+]1(C)CCCC(OC(=O)C(O)(c2ccccc2)c2ccccc2)C1` (centres undefined) [MEPENZOLATE], the AC50 in experiment [10] and in experiment [9] was above 30 µM in each case.

In the case of `CN(C)c1ccc(O)c2c1C[C@H]1C[C@H]3[C@H](N(C)C)C(O)=C(C(N)=O)C(=O)[C@@]3(O)C(O)=C1C2=O` [MINOCYCLINE], the AC50 in experiment [10] and in [9] was above 30 µM in each case.

For the molecule `CCNC(=O)/C=C(C)/C=C/C=C(C)/C=C/c1c(C)cc(OC)c(C)c1C` [MOTRETINIDE], the AC50 in [10] was above 30 µM; in [9] it was 16.4 µM.

For the molecule `COc1ccc2[nH]c([S+]([O-])Cc3ncc(C)c(OC)c3C)nc2c1` (centres undefined) [OMEPRAZOLE], the AC50 in experiment [10] and in experiment [9] was above 30 µM in each case.

`C[N+](C)(C)CCOC(=O)CCC(=O)OCC[N+](C)(C)C` [SUXAMETHONIUM] registered an AC50 in experiment [9] above 30 µM.

As to `S=P(N1CC1)(N1CC1)N1CC1` [THIOTEPA], the AC50 in experiment [1], in [3], in experiment [4], in experiment [5], in experiment [6] and in experiment [7] was above 30 µM each time. In experiment [8], this molecule showed an AC50 above 30 µM.

With `Cc1ccsc1C(=CCCN1CCC[C@@H](C(=O)O)C1)c1sccc1C` [TIAGABINE], the AC50 in [10] and in experiment [9] was above 30 µM each time.

In the case of `Cc1ccc(C(=O)c2ccc(CC(=O)O)n2C)cc1` [TOLMETIN], the AC50 in [10] and in experiment [9] was above 30 µM each time.

As for `Cc1ccccc1C(=O)Nc1ccc(C(=O)N2CCCC(O)c3cc(Cl)ccc32)c(C)c1` (centres undefined) [TOLVAPTAN], the AC50 in experiment [10] is above 30 µM.

Take `CCC1=C[C@@H]2CN(C1)Cc1c([nH]c3ccccc13)[C@@](C(=O)OC)(c1cc3c(cc1OC)N(C)[C@H]1[C@@](O)(C(=O)OC)[C@H](OC(C)=O)[C@]4(CC)C=CCN5CC[C@]31[C@@H]54)C2` [VINORELBINE]: the half-maximal activity concentration (AC50) in experiment [10] and in experiment [9] was above 30 µM each time.
